Laboratory results: the supplement of paper PMC10307832

Assays:
Assay in all cases: relative viability (nuclei count vs DMSO), 5 days (fraction); higher = more cells survive
[1] = compound: C1=CC2=NC=CN=C2C=C1/C=C/3\C(=O)NC(=O)S3 + Nc1ncn([C@H]2C[C@H](O)[C@@H](CO)O2)c(=O)n1 [Decitabine] (partner 2 µM)
Summary of the method: (§1)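 Lung cancer cell lines in 1536-well plates got either a single drug or a fixed anchor-drug dose together with five library-drug doses (not always all listed) in √10 steps, by pin tool, on the day after seeding. Nuclei were counted after 5 days, and relative viability is the treated-to-vehicle ratio of nuclei counts. Values are medians of duplicate plates.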

[2] = compound: C1=CC2=NC=CN=C2C=C1/C=C/3\C(=O)NC(=O)S3 + O=C(CCCCCCC(=O)Nc1ccccc1)NO [Vorinostat] (partner 1 µM)
Summary of the method: as §1

[3] = compound: C1=CC2=NC=CN=C2C=C1/C=C/3\C(=O)NC(=O)S3
Summary of the method: (§2)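 For viability, nuclei in each treated well were divided by nuclei in vehicle wells and the median across plates was taken. Lung cancer cell lines in 1536-well plates were pinned with five library-drug doses (not always all listed) spaced by √10, cultured 5 days without medium change, and imaged at 4× after Hoechst staining, with plates passing only at control CV below 25% and at least one doubling.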

BGJ398 = compound: CCN1CCN(c2ccc(Nc3cc(N(C)C(=O)Nc4c(Cl)c(OC)cc(OC)c4Cl)ncn3)cc2)CC1 [BGJ398]
Summary of the method: as §2

**Q.** With UMC-11 as the cell line, how does the relative viability ([1]; first compound 0.02 µM) read?
**A.** The relative viability was 0.695.

**Q.** And the relative viability ([1]; first compound 0.06325 µM)?
**A.** The relative viability was 0.665.

**Q.** What about the relative viability ([1]; first compound 0.2 µM) of the same cell line?
**A.** Its relative viability is 0.681.

**Q.** What about the relative viability ([1]; first compound 0.6325 µM) of the same cell line?
**A.** The relative viability was 0.531.

**Q.** And the relative viability ([1]; first compound 2 µM)?
**A.** The relative viability was 0.69.

**Q.** What about the relative viability ([2]; first compound 0.02 µM) of the same cell line?
**A.** Its relative viability is 0.373.

**Q.** And the relative viability ([2]; first compound 0.06325 µM)?
**A.** Its relative viability is 0.345.

**Q.** What about the relative viability ([2]; first compound 0.2 µM) of the same cell line?
**A.** The relative viability was 0.485.

**Q.** What about the relative viability ([2]; first compound 0.6325 µM) of the same cell line?
**A.** Its relative viability is 0.316.

**Q.** And the relative viability ([2]; first compound 2 µM)?
**A.** The relative viability was 0.394.

**Q.** And the relative viability ([3]; 0.02 µM)?
**A.** The relative viability was 0.978.

**Q.** And the relative viability ([3]; 0.06325 µM)?
**A.** The relative viability was 1.

**Q.** And the relative viability ([3]; 0.2 µM)?
**A.** Its relative viability is 1.01.

**Q.** And the relative viability ([3]; 0.6325 µM)?
**A.** The relative viability was 0.925.

**Q.** What about the relative viability ([3]; 2 µM) of the same cell line?
**A.** Its relative viability is 1.06.

**Q.** And the relative viability (BGJ398; 0.01 µM)?
**A.** Its relative viability is 0.955.

**Q.** What about the relative viability (BGJ398; 0.03162 µM) of the same cell line?
**A.** The relative viability was 1.05.

**Q.** And the relative viability (BGJ398; 0.1 µM)?
**A.** The relative viability was 1.05.

**Q.** And the relative viability (BGJ398; 0.3162 µM)?
**A.** Its relative viability is 0.968.

**Q.** And the relative viability (BGJ398; 1 µM)?
**A.** Its relative viability is 0.919.
